Results as given in US8833363B2, “Ejection liquid, ejection method, method for forming liquid droplets, liquid ejection cartridge and ejection apparatus” (Canon Kabushiki Kaisha, priority 2004, dated 2014).

Test system: Wister rats
Test: Confirmation of pharmacological activity: blood glucose level of rats after subcutaneous injection
Format: in vivo, rat
Conditions: 1.6 U/kg, 15, 30, 60 and 120 minutes after injection
Procedure: After anesthetic, Nembutal, was injected to Wister rats (male, 8 week-old, weight: about 250 g) fasted for one day, blood was taken from the tail vein. This is used as a base (control). […] The resultant liquid droplets were collected and subcutaneously injected into the rats in a dose of 1.6 U/kg. Blood was taken from the tail vein 15, 30, 60 and 120 minutes after the injection. The blood samples thus taken were centrifugally separated and the blood glucose levels of the obtained serums were analyzed (one group consisting of 6 rats). The same experiment was performed by using an insulin solution having no additives and not ejected in accordance with the thermal inkjet system as a Comparative Example.

insulin: insulin solution having no additives and not ejected in accordance with the thermal inkjet system (Comparative Example of Example 25)
effect in reducing blood glucose level: swiftly decreased
